# From patent US9284306B2, “(R)-Nifuratel, its use for the treatment of infections and synthesis of (R) and (S)-Nifuratel” (POLICHEM SA, priority 2012, dated 2016)
# Tests used:
# Gardnerella vaginalis = assay: MIC, agar dilution; format: cell-based
# Method: (§1) Micrococcus pyogenes (ATCC 11631), Bacillus subtilis (ATCC 11774), Lactobacillus iners (ATCC 55195), Escherichia coli (ATCC 11775), Proteus mirabilis (ATCC 14153), Klebsiella pneumoniae (ATCC 10031), Shigella sonnei (ATCC 11060), Neisseria gonorrhoeae (ATCC 19424), Salmonella typhimurium (ATCC 14028) Salmonella paratyphi B (ATCC 10719), Helicobacter pylori (ATCC 43504) and several strains of Atopobium vaginae and Gardnerella vaginalis.
# (§2) Strains were prepared from freeze-dried pellets. An isolation of the suspensions (to test the strains purity) and a strains massive growth were made by streaking microbial suspensions on agar media. The bacterial colonies on agar plates were collected with 3-5 mL of specific liquid medium+15% glycerol and then the aliquots were frozen at −80° C.
# (§3) Compounds Minimal Inhibitory Concentration (MIC) was determined through broth micro-dilution susceptibility testing with a method developed following the National Committee for Clinical Laboratory Standards (CLSI) M07-A8 and M11-A7 references. Assays were carried out in specific media (Table 3). The tests were performed either following the broth microdilution assay or the agar dilution assay. Compounds stock solutions were made at 12.8 mg/mL in DMSO 100%. A series of twofold dilutions were then prepared using the strain specific broth. Final concentrations were from 0.125 μg/mL to 64 μg/mL at 1% DMSO. MIC is defined as the lowest concentration of antibacterial agent which prevent any visible growth.
# Atopobium vaginae = assay: MIC, agar dilution; format: cell-based; conditions: Fannyhessea vaginae
# Method: as §1, §2, §3
# in vivo [1] = conditions: male, rat, iv, 2 mg/kg
# [2] = tested on: Escherichia coli ATCC 11775; assay: MIC, broth microdilution; format: cell-based; conditions: Escherichia coli, ATCC11775
# Method: as §1, §2, §3
# [3] = tested on: Micrococcus pyogenes ATCC 11631; assay: MIC, broth microdilution; format: cell-based; conditions: Staphylococcus aureus, ATCC11631
# Method: as §1, §2, §3
# Bacillus subtilis = assay: MIC, broth microdilution; format: cell-based
# Method: as §1, §2, §3
# [4] = tested on: Salmonella typhimurium ATCC 14028; assay: MIC, broth microdilution; format: cell-based; conditions: Salmonella enterica
# Method: as §1, §2, §3
# [5] = tested on: Klebsiella pneumonia ATCC 10031; assay: MIC, broth microdilution; format: cell-based; conditions: Klebsiella pneumoniae, ATCC10031
# Method: as §1, §2, §3
# [6] = tested on: Neisseria gonorrhoeae ATCC 19424; assay: MIC, broth microdilution; format: cell-based; conditions: Neisseria gonorrhoeae, ATCC19424
# Method: as §1, §2, §3
# [7] = tested on: Proteus mirabilis ATCC 14153; assay: MIC, broth microdilution; format: cell-based; conditions: Proteus mirabilis, ATCC14153
# Method: as §1, §2, §3
# [8] = tested on: Lactobacillus iners ATCC 55195; assay: MIC, broth microdilution; format: cell-based; conditions: Lactobacillus iners, ATCC55195
# Method: as §1, §2, §3
# [9] = tested on: Salmonella paratyphi B ATCC 10719; assay: MIC, broth microdilution; format: cell-based; conditions: Salmonella enterica
# Method: as §1, §2, §3
# [10] = tested on: Shigella sonnei ATCC 11060; assay: MIC, broth microdilution; format: cell-based; conditions: ATCC11060
# Method: as §1, §2, §3
# [11] = tested on: Helicobacter pylori ATCC 43504; assay: MIC, broth microdilution; format: cell-based; conditions: Helicobacter pylori, ATCC43504
# Method: as §1, §2, §3
# in vivo [12] = conditions: male, rat, po, 15 mg/kg
compound,measurement,setting,value
"CSCC1CN(/N=C/c2ccc([N+](=O)[O-])o2)C(=O)O1 (racemic) [Nifuratel racemate, Nifuratel]",MIC,"Gardnerella vaginalis; ATCC14018, agar dilution, Gardnerella vaginalis ATCC 14018",2 µg/mL
same,MIC,"Gardnerella vaginalis; agar dilution, Gardnerella vaginalis C2",8 µg/mL
same,MIC,"Gardnerella vaginalis; agar dilution, Gardnerella vaginalis D2",4 µg/mL
same,MIC,"Gardnerella vaginalis; agar dilution, Gardnerella vaginalis E2",2 µg/mL
same,MIC,"Gardnerella vaginalis; agar dilution, Gardnerella vaginalis G2",2 µg/mL
same,MIC,"Gardnerella vaginalis; agar dilution, Gardnerella vaginalis H2",1 µg/mL
same,MIC,"Gardnerella vaginalis; agar dilution, Gardnerella vaginalis J2",2 µg/mL
same,MIC,"Gardnerella vaginalis; agar dilution, Gardnerella vaginalis K2",4 µg/mL
same,MIC,Atopobium vaginae; CCUG38953,0.125 µg/mL
same,MIC,Atopobium vaginae; CCUG39382,0.25 µg/mL
same,MIC,Atopobium vaginae; CCUG42099,0.5 µg/mL
same,MIC,Atopobium vaginae; CCUG43049,0.25 µg/mL
same,MIC,Atopobium vaginae; CCUG44061,0.5 µg/mL
same,MIC,Atopobium vaginae; CCUG44156,0.5 µg/mL
same,MIC,Atopobium vaginae; CCUG48515,1 µg/mL
same,MIC,Atopobium vaginae; CCUG55226,1 µg/mL
same,MIC,Atopobium vaginae; CCUG55227,0.25 µg/mL
same,AUC(0-inf),in vivo [1],125 ng·h/mL
same,AUC(0-t),in vivo [1],122 ng·h/mL
same,Clast,in vivo [1],5 ng/mL
same,Cmax,in vivo [1],555 ng/mL
same,MRT,in vivo [1],13 min
same,Tlast,in vivo [1],120 min
same,Tmax,in vivo [1],2 min
same,VSR,in vivo [1],4.5 L/kg
same,clearance,in vivo [1],267 mL/min/kg
same,half-life,in vivo [1],24 min
same,MIC,[2],1 µg/mL
same,MIC,[3],1 µg/mL
same,MIC,Bacillus subtilis,0.5 µg/mL
same,MIC,[4],4 µg/mL
same,MIC,[5],2 µg/mL
same,MIC,[6],0.25 µg/mL
same,MIC,[7],8 µg/mL
same,MIC,[8],16 µg/mL
same,MIC,[9],2 µg/mL
same,MIC,[10],1 µg/mL
same,MIC,[11],0.125 µg/mL
same,AUC(0-t),in vivo [12],20.3 ng·h/mL
same,Clast,in vivo [12],3 ng/mL
same,Cmax,in vivo [12],8 ng/mL
same,MRT,in vivo [12],1.82 h
same,Tlast,in vivo [12],240 min
same,Tmax,in vivo [12],30 min
same,half-life,in vivo [12],182 min
